# Source: patent US20070197509A1, “Compositions and methods for modulating gated ion channels” (PainCeptor Pharma Corporation, priority 2005, published 2007)
# Entries after “also recorded” stand apart in the source; their conditions may differ.
# Target: T1, hASIC1a (Homo sapiens, UniProt P78348)
# T1 sequence (P78348 1-528): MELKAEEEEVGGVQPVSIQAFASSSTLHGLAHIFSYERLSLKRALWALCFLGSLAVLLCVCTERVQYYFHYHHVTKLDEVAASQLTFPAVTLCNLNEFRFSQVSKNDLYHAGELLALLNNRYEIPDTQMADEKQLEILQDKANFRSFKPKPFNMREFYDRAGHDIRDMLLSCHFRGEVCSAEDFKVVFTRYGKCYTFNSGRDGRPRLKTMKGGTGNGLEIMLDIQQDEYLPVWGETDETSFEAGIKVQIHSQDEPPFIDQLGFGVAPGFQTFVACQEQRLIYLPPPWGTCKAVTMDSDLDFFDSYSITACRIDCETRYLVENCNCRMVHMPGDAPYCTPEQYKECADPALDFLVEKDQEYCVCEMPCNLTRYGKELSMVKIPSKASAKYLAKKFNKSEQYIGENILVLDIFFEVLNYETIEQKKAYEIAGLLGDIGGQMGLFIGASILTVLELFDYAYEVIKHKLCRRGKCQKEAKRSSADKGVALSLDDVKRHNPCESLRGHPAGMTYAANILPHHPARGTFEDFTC
# Experiment: Two-electrode voltage clamp in Xenopus laevis oocytes expressing hASIC1a (OpusExpress)
# Assay type: cell-based
# Set-up: expressed in transfected cells; host or cells: Xenopus laevis oocytes, nuclear microinjection of cDNA (e.g. in pCDNA3)
# Details: 30 uM, OpusExpress; kind of effect not given
# Experimental: Two-electrode voltage clamp electrophysiological assays in Xenopus laevis oocytes expressing gated ion channels are performed as follows:
# Oocytes are surgically removed from adult Xenopus laevis and treated for 2 h at room temperature with 1 mg/ml type I collagenase (Sigma) in Barth's solution under mild agitation. Selected oocytes at stage IV-V are defolliculated manually before nuclear microinjection of 2.5-5 ng of a suitable expression vector, such as pCDNA3, comprising the nucleotide sequence encoding a gated ion channel subunit protein. In such an experiment, the oocytes express homomultimeric proton-gated ion channels on their surface. In an alternate experiment, one, two, three or more vectors comprising the coding sequences for distinct gated ion channel subunits are co-injected in the oocyte nuclei. In the latter case, oocytes express heteromultimeric proton-gated ion channels. […] Once impaled with the microelectrodes, oocytes are continuously superfused at 10-12 ml/min with a modified Ringer's solution containing 97 mM NaCl, 2 mM KCl, 1.8 mM CaCl2, and 10 mM HEPES brought to pH 7.4 with NaOH (Control Ringer). Test Ringer solution is prepared by replacing HEPES with MES and adjusting the pH to the desired acidic value. Compounds of the present invention are prepared in both the Control and Test Ringer solutions and applied to oocytes at room temperature through a computer-controlled switching valve system. […] Similarly, recordings can also be acquired in an automated multichannel oocytes system as the OpusExpress™ (Molecular Devices, Sunnyvale, Calif., USA).
# Recordings were acquired from oocytes expressing homomeric hASIC1a using a two-electrode voltage-clamp configuration procedure as described herein.
row,Structure (SMILES),approx. % at 30 uM (OX)
1,"Cc1cc(OC2CCN(Cc3ccc(Cl)cc3)CC2)c2ccccc2n1 [Compound 5, 4[1-(4-chloro-benzyl)-piperidin-4-yloxy]-2-methyl-quinoline]",approx. 15% at 30 uM (OX)

# Same assay, conditions: OpusExpress (OX), Tables A-F; h1a printed in some cells only
row,Structure (SMILES),Biological Data (IC50 uM) h1a (OX)
1,"c1ccc(CN2CCC(Oc3cc(-c4ccccc4)nc4ccccc34)CC2)cc1 [Compound 3, 4-(1-benzyl-piperidin-4-yloxy)-2-phenyl-quinoline]",Not Active (OX)
2,"Cc1cc(OC2CCN(C(=O)c3ccccc3)CC2)c2ccccc2n1 [Compound 6, [4-(2-methyl-quinolin-4-yloxy)-piperidin-1-yl]-phenyl-methanone]",Not Active (OX)
3,"Cc1cc(OC2CCN(Cc3ccccc3)CC2)c2ccc(Cl)cc2n1 [Compound 9, 4-(1-benzyl-piperidin-4-yloxy)-7-chloro-2-methyl-quinoline]",Not Active (OX)
4,"FC(F)(F)c1cc(OC2CCN(Cc3ccccc3)CC2)c2cccc(C(F)(F)F)c2n1 [Compound 10, 4-(1-benzyl-piperidin-4-yloxy)-2,8-bis-trifluoromethyl-quinoline]",Not Active (OX)
5,"Clc1ccc2c(OC3CCN(Cc4ccccc4)CC3)ccnc2c1 [Compound 11, 4-(1-benzyl-piperidin-4-yloxy)-7-chloro-quinoline]",Not Active (OX)
6,"Cc1cc(OC2CCN(Cc3ccccc3)CC2)c2cccc(C)c2n1 [Compound 14, 4-(1-benzyl-piperidin-4-yloxy)-2,8-dimethyl-quinoline]",Not Active (OX)
7,"COc1ccc(-c2cc(C(=O)N3CCN(CCc4ccccc4)CC3)c3ccccc3n2)cc1OC [Compound 42, [2-(3,4-dimethoxy-phenyl)-quinolin-4-yl]-(4-phenethyl-piperazin-1-yl)-methanone]",Not Active (OX)
8,"COc1ccc(-c2cc(C(=O)N3CCN(Cc4ccc5c(c4)OCO5)CC3)c3cc(Cl)ccc3n2)c(O)c1 [Compound 45, (4-benzo[1,3]dioxol-5-ylmethyl-piperazin-1-yl)-[6-chloro-2-(2-hydroxy-4-methoxy-phenyl)-quinolin-4-yl]-methanone]",Not Active (OX)
9,"Cc1cc(N2CCN(c3ccccc3C#N)CC2)c2ccccc2n1 [Compound 60, 2-[4-(2-methyl-quinolin-4-yl)-piperazin-1-yl]-benzonitrile]",Not Active (OX)
10,"Cc1cc(N2CCN(c3ccc([N+](=O)[O-])cc3)CC2)c2ccccc2n1 [Compound 61, 2-methyl-4-[4-(4-nitro-phenyl)-piperazin-1-yl]-quinoline]",Not Active (OX)
11,"O=C(O)c1ccc(Nc2ncnc3ccc([N+](=O)[O-])cc23)cc1 [Compound 103, 4-(6-nitro-quinazolin-4-ylamino)-benzoic acid]",Not Active (OX)
12,"Cc1ccc(-c2nc(N(C)c3ccc(C(=O)O)cc3)c3ccccc3n2)cc1 [Compound 106, 4-[methyl-(2-p-tolyl-quinazolin-4-yl)-amino]-benzoic acid]",Not Active (OX)
13,"Cc1ccc(-c2nc(NC3CCN(Cc4ccccc4)CC3)c3ccc(Cl)cc3n2)cc1 [Compound 108, (1-benzyl-piperidin-4-yl)-(7-chloro-2-p-tolyl-quinazolin-4-yl)-amine]",Not Active (OX)
14,"Cc1ccc(-c2nc(OCCCCCl)c3cc([N+](=O)[O-])ccc3n2)cc1 [Compound 109, 4-(4-chloro-butoxy)-6-nitro-2-p-tolyl-quinazoline]",Not Active (OX)
15,"Cc1ccc(-c2nc(N3CCCCC3)c3ccc(Cl)cc3n2)cc1 [Compound 110, 7-chloro-4-piperidin-1-yl-2-p-tolyl-quinazoline]",Not Active (OX)

# Further lines, results first:
row,Biological Data (IC50 uM) h1a (OX),Structure (SMILES)
1,Not Active (OX),"Cc1cc(OC2CCN(C(=O)OC(C)(C)C)CC2)c2ccccc2n1 [Compound 12, 4-(2-methyl-quinolin-4-yloxy)-piperidine-1-carboxylic acid tert butyl ester]"
2,Not Active (OX),"Cc1cc(OC2CCN(CC(C)(C)C)CC2)c2ccccc2n1 [Compound 15, 4-[1-(2,2-dimethyl-propyl)-piperidin-4-yloxy]-2-methyl-quinoline]"
3,Not Active,"CCc1nc(NC2CCN(Cc3ccccc3)CC2)c2ccccc2n1 [Compound 33, (1-benzyl-piperidin-4-yl)-(2-ethyl-quinazolin-4-yl)-amine]"
4,Not Active (OX),"Cc1cc(N2CCN(C(=O)OC(C)(C)C)CC2)c2ccccc2n1 [Compound 59, 4-(2-methyl-quinolin-4-yl)-piperazine-1-carboxylic acid tert-butyl ester]"
5,Not Active (OX),"O=C(O)c1ccc(Nc2ncnc3ccccc23)cc1 [Compound 102, 4-(quinazolin-4-ylamino)-benzoic acid]"
6,Not Active (OX),"Cc1ccc(-c2nc(Nc3ccccc3)c3ccccc3n2)cc1 [Compound 104, Phenyl-(2-p-tolyl-quinazolin-4-yl)-amine]"
7,Not Active (OX),"Cc1ccc(-c2nc(NCCCC(=O)O)c3ccccc3n2)cc1 [Compound 105, 4-(2-p-tolyl-quinazolin-4-ylamino)-butyric acid]"
8,Not Active (OX),"CCc1nc(NCCOC)c2ccccc2n1 [Compound 111, (2-ethyl-quinazolin-4-yl)-(2-methoxy-ethyl)-amine]"

# Same assay, conditions: OpusExpress (OX), Tables A-F; h1a printed in some cells only; read-out: Biological Data (IC50 uM) h1a (OX)
row,Structure (SMILES),IC50
1,"Cc1cc(OC2CCN(CCc3ccccc3)CC2)c2ccccc2n1 [Compound 2, 2-methyl-4-(1-phenethyl-piperidin-4-yloxy)-quinoline]",> 30 µM
2,"Cc1cc(OC2CCN(Cc3ccccc3)CC2)c2cc(Br)ccc2n1 [Compound 7, 4-(1-benzyl-piperidin-4-yloxy)-6-bromo-2-methyl-quinoline]",10 to 20 µM
3,"COc1ccc2nc(C)cc(OC3CCN(Cc4ccccc4)CC3)c2c1 [Compound 8, 4-(1-benzyl-piperidin-4-yloxy)-6-methoxy-2-methyl-quinoline]",> 30 µM
4,"FC(F)(F)c1cc(OC2CCN(Cc3ccccc3)CC2)c2ccccc2n1 [Compound 13, 4-(1-benzyl-piperidin-4-yloxy)-2-trifluoromethyl-quinoline]",20 to 35 µM
5,"CCc1nc(N(C)C2CCN(Cc3ccccc3)CC2)c2ccccc2n1 [Compound 32, (1-benzyl-piperidin-4-yl)-(2-ethyl-quinazolin-4-yl)-methyl-amine]",15 to 25 µM

# Continued, values first:
row,IC50,Structure (SMILES)
1,> 30 µM,"Cc1cc(OCCCN(C)Cc2ccccc2)c2ccccc2n1 [Compound 1, benzyl-methyl-[3-(2-methyl-quinolin-4-yloxy)-propyl]-amine]"
2,> 30 µM,"Cc1cc(OC2CCN(C)CC2)c2ccccc2n1 [Compound 4, 2-methyl-4-(1-methyl-piperidin-4-yloxy)-quinoline]"
3,> 30 µM,"Cc1cc(OC2CCN(CC(C)C)CC2)c2ccccc2n1 [Compound 29, 4-(1-isobutyl-piperidin-4-yloxy)-2-methyl-quinoline]"

# Same assay, conditions: OpusExpress, two-electrode voltage clamp, dose-response
row,Structure (SMILES),effect on hASIC1a current evoked by pH 6.5 in oocytes (FIGS. 4A-4D)
1,"Cc1cc(OC2CCN(Cc3ccccc3)CC2)c2cc(Br)ccc2n1 [Compound 7, 4-(1-benzyl-piperidin-4-yloxy)-6-bromo-2-methyl-quinoline]",effective modulators; also recorded: dose-dependent reduction
2,"CCc1nc(N(C)C2CCN(Cc3ccccc3)CC2)c2ccccc2n1 [Compound 32, (1-benzyl-piperidin-4-yl)-(2-ethyl-quinazolin-4-yl)-methyl-amine]",effective modulators; also recorded: dose-dependent reduction

# Same assay, conditions: Table H; read-out: IC50 (μM) Opus Express (h1a)
row,Structure (SMILES),IC50
1,"Cc1cc(OC2CCN(Cc3ccccc3)CC2)c2cc(Br)ccc2n1 [Compound 7, 4-(1-benzyl-piperidin-4-yloxy)-6-bromo-2-methyl-quinoline]",13.2 µM
2,"FC(F)(F)c1cc(OC2CCN(Cc3ccccc3)CC2)c2ccccc2n1 [Compound 13, 4-(1-benzyl-piperidin-4-yloxy)-2-trifluoromethyl-quinoline]",27.6 µM
3,"Cc1cc(OC2CCN(Cc3ccccc3)CC2)c2cccc(F)c2n1 [Compound 24, 4-(1-benzyl-piperidin-4-yloxy)-8-fluoro-2-methyl-quinoline]",1.25 µM
4,"CCc1nc(N(C)C2CCN(Cc3ccccc3)CC2)c2ccccc2n1 [Compound 32, (1-benzyl-piperidin-4-yl)-(2-ethyl-quinazolin-4-yl)-methyl-amine]",20.7 µM
